One assay concerns the target JAK3 kinase (Homo sapiens (Human), UniProt P52333). In words: JAK3 Homogeneous Time Resolved Fluorescence (HTRF) Assay. Format: binding. The following applies: for IC50: competition binding with fluorescein-labeled ATP competitive probe; for Ratio of JAK3 IC50 to IRAK4 IC50: selectivity for IRAK4 over JAK3. An outline of the steps: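 TR-FRET competition binding: 1 nM His- or GST-tagged JAK3 with 0.2 nM Tb-labeled anti-tag antibody, fluorescein ATP-competitive probe at its Kd, and compound for one hour. FRET read at 495/520 nm, normalized to no-compound signal. IC50 from 11 concentrations, 4-parameter logistic fit.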

For the next assay, the target named is IRAK4 (Homo sapiens (Human), UniProt Q9NWZ3). In words: IRAK4 Inhibition Assay. Type of assay: biochemical. The following applies: ATP 500 μM; IRAK4 0.6 nM; 60 min room temperature. The method in brief: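 Reaction started by combining IRAK4 with substrates and compound, run 60 min at room temperature and stopped with 35 mM EDTA. Fluorescent substrate and phosphorylated product were separated electrophoretically on a Caliper LabChip; inhibition normalized to no-enzyme (100%) and vehicle-only (0%) controls.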
IRAK4, sequence (Q9NWZ3 whole entry, species assumed): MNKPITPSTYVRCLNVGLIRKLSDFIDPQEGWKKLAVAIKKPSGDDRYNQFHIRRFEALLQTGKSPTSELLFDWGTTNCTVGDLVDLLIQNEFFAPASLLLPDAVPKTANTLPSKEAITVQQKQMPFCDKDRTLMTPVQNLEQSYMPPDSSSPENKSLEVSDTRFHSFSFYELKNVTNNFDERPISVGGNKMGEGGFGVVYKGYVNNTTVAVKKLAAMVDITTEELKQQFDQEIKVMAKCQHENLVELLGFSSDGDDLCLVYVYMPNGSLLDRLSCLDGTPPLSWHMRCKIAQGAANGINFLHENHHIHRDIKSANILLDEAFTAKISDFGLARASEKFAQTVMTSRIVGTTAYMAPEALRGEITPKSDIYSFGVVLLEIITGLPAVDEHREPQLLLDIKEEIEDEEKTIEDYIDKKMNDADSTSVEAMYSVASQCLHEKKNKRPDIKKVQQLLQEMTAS

A value given as a limit tells only on which side of the number the result lay.

JAK3 kinase, sequence (P52333 whole entry): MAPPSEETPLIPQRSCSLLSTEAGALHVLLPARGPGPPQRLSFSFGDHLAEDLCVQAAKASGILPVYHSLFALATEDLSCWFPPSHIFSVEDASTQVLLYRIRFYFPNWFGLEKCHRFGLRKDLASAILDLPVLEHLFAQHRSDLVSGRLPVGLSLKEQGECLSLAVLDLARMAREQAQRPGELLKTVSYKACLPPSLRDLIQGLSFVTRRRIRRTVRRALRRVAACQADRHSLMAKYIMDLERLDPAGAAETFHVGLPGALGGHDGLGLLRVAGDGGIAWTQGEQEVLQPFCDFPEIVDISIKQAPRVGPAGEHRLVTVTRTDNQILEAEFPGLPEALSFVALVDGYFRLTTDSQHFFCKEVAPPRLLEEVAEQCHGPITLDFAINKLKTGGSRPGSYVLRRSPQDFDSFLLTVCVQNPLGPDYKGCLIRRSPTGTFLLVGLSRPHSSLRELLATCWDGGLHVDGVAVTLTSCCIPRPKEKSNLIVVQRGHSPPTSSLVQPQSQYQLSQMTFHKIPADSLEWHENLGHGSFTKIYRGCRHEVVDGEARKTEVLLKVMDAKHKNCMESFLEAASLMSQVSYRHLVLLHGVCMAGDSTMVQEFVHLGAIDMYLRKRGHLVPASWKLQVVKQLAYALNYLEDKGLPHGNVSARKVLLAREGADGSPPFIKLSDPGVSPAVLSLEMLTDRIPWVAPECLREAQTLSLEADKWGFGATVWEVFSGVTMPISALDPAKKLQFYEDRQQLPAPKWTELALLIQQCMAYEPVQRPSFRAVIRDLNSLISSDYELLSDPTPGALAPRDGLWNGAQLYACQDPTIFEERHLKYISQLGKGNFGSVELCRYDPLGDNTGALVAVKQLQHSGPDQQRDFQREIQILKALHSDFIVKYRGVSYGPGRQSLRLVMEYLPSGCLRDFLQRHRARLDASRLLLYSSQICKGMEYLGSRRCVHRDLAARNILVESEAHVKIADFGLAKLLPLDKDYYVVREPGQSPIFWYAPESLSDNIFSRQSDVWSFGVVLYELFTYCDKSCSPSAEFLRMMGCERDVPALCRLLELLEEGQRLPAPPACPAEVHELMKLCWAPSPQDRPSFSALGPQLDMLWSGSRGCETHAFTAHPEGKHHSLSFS

On to `CC(C)Nc1c(C(=O)NCCNS(C)(=O)=O)cnc2cc(-c3ccncc3F)nn12` [Example 161, 2-(3-fluoropyridin-4-yl)-7-(isopropylamino)-N-(2-(methylsulfonamido)ethyl) pyrazolo[1,5-a]pyrimidine-6-carboxamide], for which the values for the IC50 at JAK3 kinase and at IRAK4 were greater than 10000 nM and 160 nM, respectively. Moreover, the “Ratio of JAK3 IC50 to IRAK4 IC50” value on JAK3 kinase is recorded as greater than 63.

For `CC(C)Nc1c(C(=O)NC[C@@H](F)C(C)(C)O)cnn2cc(-c3ccc(F)cn3)cc12` [Example 18, (R)—N-(2-fluoro-3-hydroxy-3-methylbutyl)-6-(5-fluoropyridin-2-yl)-4-(isopropylamino)pyrrolo[1,2-b]pyridazine-3-carboxamide], on JAK3 kinase, the IC50 (commonly the concentration at which inhibition is half-maximal) was greater than 50000 nM and the “Ratio of JAK3 IC50 to IRAK4 IC50” value is recorded as greater than 4167. At IRAK4, the IC50 turned out to be 12 nM.

In the case of `Cc1cc(F)ncc1-c1cc2c(NCCC(C)(C)O)c(C(=O)NC[C@@H](F)C(C)(C)O)cnn2c1` [Example 24, (R)—N-(2-fluoro-3-hydroxy-3-methylbutyl)-6-(6-fluoro-4-methylpyridin-3-yl)-4-((3-hydroxy-3-methylbutyl)amino)pyrrolo[1,2-b]pyridazine-3-carboxamide], on JAK3 kinase, the IC50 is greater than 10000 nM and the “Ratio of JAK3 IC50 to IRAK4 IC50” value is listed as greater than 71. In addition, the IC50 at IRAK4 came to 140 nM.

For the compound `CC(=O)N[C@H]1CC[C@H](NC(=O)c2cnn3cc(-c4ccc(C(N)=O)cc4)cc3c2NC(C)C)CC1` [Example 74, N-((1r,4r)-4-acetamidocyclohexyl)-6-(4-carbamoylphenyl)-4-(isopropylamino)pyrrolo[1,2-b] pyridazine-3-carboxamide], on JAK3 kinase, the IC50 is greater than 50000 nM and the “Ratio of JAK3 IC50 to IRAK4 IC50” value is given as greater than 521. At IRAK4, the IC50 was 96 nM.

Turning to `CC(C)(O)[C@H](F)CNC(=O)c1cnn2cc(-c3cccnc3)cc2c1NC1CCOCC1` [Example 6, (R)—N-(2-fluoro-3-hydroxy-3-methylbutyl)-6-(pyridin-3-yl)-4-((tetrahydro-2H-pyran-4-yl)amino) pyrrolo[1,2-b] pyridazine-3-carboxamide], at JAK3 kinase, the IC50 is greater than 50000 nM and the “Ratio of JAK3 IC50 to IRAK4 IC50” value is on record as greater than 926. Besides, the concentration for half-maximal inhibition (IC50) on IRAK4 was 54 nM.

For the compound `CC(C)Nc1c(C(=O)NC[C@@H](F)C(C)(C)O)cnn2cc(-c3ccccn3)cc12` [Example 16, (R)—N-(2-fluoro-3-hydroxy-3-methylbutyl)-4-(isopropylamino)-6-(pyridin-2-yl)pyrrolo[1,2-b]pyridazine-3-carboxamide], the IC50 was greater than 50000 nM at JAK3 kinase and 17 nM on IRAK4. In addition, the “Ratio of JAK3 IC50 to IRAK4 IC50” value at JAK3 kinase is greater than 2941.

`CC(C)(O)[C@H](F)CNC(=O)c1cnn2cc(-c3ccc(C#N)cn3)cc2c1NC1CCOCC1` [Example 20, (R)-6-(5-cyanopyridin-2-yl)-N-(2-fluoro-3-hydroxy-3-methylbutyl)-4-((tetrahydro-2H-pyran-4-yl)amino)pyrrolo[1,2-b] pyridazine-3-carboxamide]: the IC50 was greater than 50000 nM on JAK3 kinase and 150 nM on IRAK4. Moreover, the “Ratio of JAK3 IC50 to IRAK4 IC50” value on JAK3 kinase is greater than 333.

In the case of `CC(C)Nc1c(C(=O)NC[C@@H](F)C(C)(C)O)cnc2cc(-c3ccccn3)nn12` [Example 152, (R)—N-(2-fluoro-3-hydroxy-3-methylbutyl)-7-(isopropylamino)-2-(pyridin-2-yl)pyrazolo[1,5-a]pyrimidine-6-carboxamide], at JAK3 kinase, the IC50 was greater than 10000 nM and the “Ratio of JAK3 IC50 to IRAK4 IC50” value is reported as greater than 63. Moreover, the IC50 at IRAK4 worked out at 160 nM.

With `CC(C)Nc1c(C(=O)NC[C@@H](F)C(C)(C)O)cnn2cc(-c3cnn4cc(Cl)cnc34)cc12` [Example 38, (R)-6-(6-chloropyrazolo[1,5-a]pyrimidin-3-yl)-N-(2-fluoro-3-hydroxy-3-methylbutyl)-4-(isopropylamino)pyrrolo[1,2-b]pyridazine-3-carboxamide], at JAK3 kinase, the IC50 was greater than 9900 nM and the “Ratio of JAK3 IC50 to IRAK4 IC50” value is greater than 254. On IRAK4, the IC50 was 39 nM.

Regarding `CC(C)Nc1c(C(=O)NC[C@@H](F)C(C)(C)O)cnn2cc(-c3cnoc3)cc12` [Example 44, (R)—N-(2-fluoro-3-hydroxy-3-methylbutyl)-4-(isopropylamino)-6-(isoxazol-4-yl)pyrrolo[1,2-b]pyridazine-3-carboxamide], the IC50 is greater than 50000 nM at JAK3 kinase and 1500 nM at IRAK4. The “Ratio of JAK3 IC50 to IRAK4 IC50” value at JAK3 kinase is on record as greater than 33.

Regarding `CC(C)Nc1c(C(=O)NC[C@@H](F)C(C)(C)O)cnc2cc(-c3ccncc3)nn12` [Example 122, (R)—N-(2-fluoro-3-hydroxy-3-methylbutyl)-7-(isopropylamino)-2-(pyridin-4-yl)pyrazolo[1,5-a] pyrimidine-6-carboxamide], at JAK3 kinase, the IC50 was greater than 10000 nM and the “Ratio of JAK3 IC50 to IRAK4 IC50” value is greater than 625. Further, the IC50 at IRAK4 was determined as 16 nM.

On to `CC(C)(O)CCNc1c(C(=O)NC[C@@H](F)C(C)(C)O)cnn2cc(-c3cccnc3)cc12` [Example 25, (R)—N-(2-fluoro-3-hydroxy-3-methylbutyl)-4-((3-hydroxy-3-methylbutyl)amino)-6-(pyridin-3-yl) pyrrolo[1,2-b]pyridazine-3-carboxamide], for which the IC50 at JAK3 kinase is greater than 50000 nM; on IRAK4, 280 nM. Besides, at JAK3 kinase, the “Ratio of JAK3 IC50 to IRAK4 IC50” value is reported as greater than 179.

For the compound `CC(C)Nc1c(C(=O)NC[C@@H](F)C(C)(C)O)cnn2cc(-c3ccc(C#N)nc3)nc12` [Example 101, (R)-2-(6-cyanopyridin-3-yl)-N-(2-fluoro-3-hydroxy-3-methylbutyl)-8-(isopropylamino)imidazo[1,2-b]pyridazine-7-carboxamide], the IC50 is greater than 50000 nM at JAK3 kinase and 70 nM at IRAK4. Also, the “Ratio of JAK3 IC50 to IRAK4 IC50” value on JAK3 kinase is greater than 714.

Turning to `CC(C)Nc1c(C(=O)NC[C@@H](F)C(C)(C)O)cnn2cc(Nc3ncc(C#N)cc3Cl)cc12` [Example 42, (R)-6-((3-chloro-5-cyanopyridin-2-yl)amino)-N-(2-fluoro-3-hydroxy-3-methylbutyl)-4-(isopropylamino)pyrrolo[1,2-b]pyridazine-3-carboxamide], on JAK3 kinase, the IC50 was greater than 50000 nM and the “Ratio of JAK3 IC50 to IRAK4 IC50” value was greater than 1923. The IC50 at IRAK4 is 26 nM.

`CC(C)(O)[C@H](F)CNC(=O)c1cnc2cc(-c3cccnc3)nn2c1N[C@H]1CCN(c2cnc(F)nc2)C1` [Example 138, N—((R)-2-fluoro-3-hydroxy-3-methylbutyl)-7-(((S)-1-(2-fluoropyrimidin-5-yl)pyrrolidin-3-yl)amino)-2-(pyridin-3-yl) pyrazolo[1,5-a]pyrimidine-6-carboxamide]: on JAK3 kinase, the IC50 was greater than 10000 nM and the “Ratio of JAK3 IC50 to IRAK4 IC50” value is greater than 16. Besides, on IRAK4, the IC50 turned out to be 640 nM.

On to `COc1cccc(-c2cc3ncc(C(=O)NC[C@@H](F)C(C)(C)O)c(NC(C)C)n3n2)n1` [Example 144, (R)—N-(2-fluoro-3-hydroxy-3-methylbutyl)-7-(isopropylamino)-2-(6-methoxypyridin-2-yl)pyrazolo[1,5-a] pyrimidine-6-carboxamide], for which, on JAK3 kinase, the IC50 is greater than 50000 nM and the “Ratio of JAK3 IC50 to IRAK4 IC50” value is listed as greater than 36. Moreover, the IC50 at IRAK4 is 1400 nM.

For the compound `CC(C)Nc1c(C(=O)NC[C@@H](F)C(C)(C)O)cnn2cc(-c3ccc(F)cc3)cc12` [Example 13, (R)—N-(2-fluoro-3-hydroxy-3-methylbutyl)-6-(4-fluorophenyl)-4-(isopropylamino)pyrrolo[1,2-b]pyridazine-3-carboxamide], on JAK3 kinase, the IC50 was greater than 50000 nM and the “Ratio of JAK3 IC50 to IRAK4 IC50” value is given as greater than 1724. Further, the IC50 at IRAK4 is 29 nM.

As for `CC(C)Nc1c(C(=O)NC[C@@H](F)C(C)(C)O)cnn2cc(Nc3ccc(C#N)cn3)cc12` [Example 40, (R)-6-((5-cyanopyridin-2-yl)amino)-N-(2-fluoro-3-hydroxy-3-methylbutyl)-4-(isopropylamino) pyrrolo[1,2-b]pyridazine-3-carboxamide], at JAK3 kinase, the half-inhibitory concentration (IC50) is greater than 50000 nM and the “Ratio of JAK3 IC50 to IRAK4 IC50” value was greater than 208. In addition, the IC50 on IRAK4 worked out at 240 nM.

With `COc1ncccc1-c1cc2c(NC(C)C)c(C(=O)N[C@H]3CC[C@H](NC(C)=O)CC3)cnn2c1` [Example 59, N-((1r,4r)-4-acetamidocyclohexyl)-4-(isopropylamino)-6-(2-methoxypyridin-3-yl)pyrrolo[1,2-b]pyridazine-3-carboxamide], the IC50 on JAK3 kinase is roughly 33000 nM; on IRAK4 it was 29 nM. For the same compound, the “Ratio of JAK3 IC50 to IRAK4 IC50” value at JAK3 kinase is given as roughly 1138.

With `CC(C)Nc1c(C(=O)NC[C@@H](F)C(C)(C)O)cnc2cc(-c3cncc(C#N)c3)nn12` [Example 124, (R)-2-(5-cyanopyridin-3-yl)-N-(2-fluoro-3-hydroxy-3-methylbutyl)-7-(isopropylamino) pyrazolo[1,5-a]pyrimidine-6-carboxamide], at JAK3 kinase, the half-maximal inhibitory concentration (IC50) was greater than 50000 nM and the “Ratio of JAK3 IC50 to IRAK4 IC50” value is listed as greater than 139. Also, on IRAK4, the IC50 is 360 nM.

Consider `Cc1cncc(-c2cc3ncc(C(=O)NC[C@@H](F)C(C)(C)O)c(NC(C)C)n3n2)c1` [Example 146, (R)—N-(2-fluoro-3-hydroxy-3-methylbutyl)-7-(isopropylamino)-2-(5-methylpyridin-3-yl)pyrazolo[1,5-a]pyrimidine-6-carboxamide], for which, at JAK3 kinase, the IC50 is greater than 50000 nM and the “Ratio of JAK3 IC50 to IRAK4 IC50” value was greater than 104. Moreover, at IRAK4, the IC50 is 480 nM.

As to `CC(C)Nc1c(C(=O)NC[C@@H](F)C(C)(C)O)cnn2cc(-c3ccc(F)cc3)nc12` [Example 104, (R)—N-(2-fluoro-3-hydroxy-3-methylbutyl)-2-(4-fluorophenyl)-8-(isopropylamino)imidazo[1,2-b]pyridazine-7-carboxamide], the figures for the IC50 at JAK3 kinase and on IRAK4 were greater than 10000 nM and 39 nM, respectively. For the same compound, at JAK3 kinase, the “Ratio of JAK3 IC50 to IRAK4 IC50” value is greater than 256.

For the origin of these results see patent publication US12570659B2, “Bicyclic heteroaryl compounds useful as IRAK4 inhibitors” (BRISTOL-MYERS SQUIBB COMPANY, priority 2019, dated 2026).
